Where only a bound is given, the exact number is not on record here.

The target of this experiment is KRasG12C (M1-K169, biotinylated on the N-terminus) (Homo sapiens (Human), UniProt P01116, G12C). As to the kind of experiment: Covalent competition assay: scintillation proximity assay (SPA) quantifying covalent modification of KRASG12C. It counts as binding. As to conditions: competition with radiolabeled covalent probe (Compound B/Compound A), 2 hours incubation, 10 nM KRasG12C. In short, it runs like this: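 Scintillation proximity readout after streptavidin bead capture (30 min) of biotinylated KRasG12C(M1-K169):GDP, 10 nM final, which was covalently labelled over 2 h by 25 nM radio-probe plus 475 nM cold probe unless blocked by compound.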
Background: In a scintillation proximity assay essentially only radioactivity close to the scintillant gives light.
On to `[2H]C([2H])([2H])c1c(-c2c(Cl)c(Cl)cc3[nH]ncc23)c(N2CC[C@@H](CN3CCOCC3)CC2(C)C)nn1C1CC2(C1)CN(C(=O)C=C)C2` (single isomer, unassigned) [Example 224a], for which the IC50 is more than 5000 nM.

Turning to `[2H]C([2H])([2H])c1c(-c2c(Cl)c(Cl)cc3[nH]ncc23)c(N2CC[C@@H](CN3CCOCC3)CC2(C)C)nn1C1CC2(C1)CN(C(=O)C=C)C2` (single isomer, unassigned) [Example 224b], the IC50 is 12 nM.

Turning to `C=CC(=O)N1CC2(CC(n3nc(N4CC[C@@H](CN5CCOCC5)CC4(C)C)c(-c4c(Cl)c(C)cc5[nH]nc(C)c45)c3C#N)C2)C1` (single isomer, unassigned) [Example 225a], the half-maximal inhibitory concentration (IC50) came to 341 nM.

Turning to `C=CC(=O)N1CC2(CC(n3nc(N4CC[C@@H](CN5CCOCC5)CC4(C)C)c(-c4c(Cl)c(C)cc5[nH]nc(C)c45)c3C#N)C2)C1` (single isomer, unassigned) [Example 225b], the IC50 was more than 5000 nM.

Turning to `C=CC(=O)N1CC2(CC(n3nc(N4CCC(CN5CC6COCC6C5)CC4(C)C)c(-c4c(Cl)c(Cl)cc5[nH]ncc45)c3C)C2)C1` (single isomer, unassigned) [Example 226a, 1-(6-(4-(5,6-dichloro-1H-indazol-4-yl)-3-(2,2-dimethyl-4-((tetrahydro-1H-furo[3,4-c]pyrrol-5(3H)-yl)methyl)piperidin-1-yl)-5-methyl-1H-pyrazol-1-yl)-2-azaspiro[3.3]heptan-2-yl)prop-2-en-1-one], the IC50 came out at 119 nM.

For the compound `C=CC(=O)N1CC2(CC(n3nc(N4CCC(CN5CC6COCC6C5)CC4(C)C)c(-c4c(Cl)c(Cl)cc5[nH]ncc45)c3C)C2)C1` (single isomer, unassigned) [Example 226b, 1-(6-(4-(5,6-dichloro-1H-indazol-4-yl)-3-(2,2-dimethyl-4-((tetrahydro-1H-furo[3,4-c]pyrrol-5(3H)-yl)methyl)piperidin-1-yl)-5-methyl-1H-pyrazol-1-yl)-2-azaspiro[3.3]heptan-2-yl)prop-2-en-1-one], the IC50 is 1100 nM.

On to `C=CC(=O)N1CC2(CC(n3nc(N4CCC(CN5CC6COCC6C5)CC4(C)C)c(-c4c(Cl)c(Cl)cc5[nH]ncc45)c3C)C2)C1` (single isomer, unassigned) [Example 227a, 1-(6-(4-(5,6-dichloro-1H-indazol-4-yl)-3-(2,2-dimethyl-4-((tetrahydro-1H-furo[3,4-c]pyrrol-5(3H)-yl)methyl)piperidin-1-yl)-5-methyl-1H-pyrazol-1-yl)-2-azaspiro[3.3]heptan-2-yl)prop-2-en-1-one], for which the IC50 was found to be 4900 nM.

As to `C=CC(=O)N1CC2(CC(n3nc(N4CCC(CN5CC6COCC6C5)CC4(C)C)c(-c4c(Cl)c(Cl)cc5[nH]ncc45)c3C)C2)C1` (single isomer, unassigned) [Example 227b, 1-(6-(4-(5,6-dichloro-1H-indazol-4-yl)-3-(2,2-dimethyl-4-((tetrahydro-1H-furo[3,4-c]pyrrol-5(3H)-yl)methyl)piperidin-1-yl)-5-methyl-1H-pyrazol-1-yl)-2-azaspiro[3.3]heptan-2-yl)prop-2-en-1-one], the IC50 turned out to be 8 nM.

As for `C=CC(=O)N1CC2(CC(n3nc(N4CCC(CN5CC6CC(C5)O6)CC4(C)C)c(-c4c(Cl)c(Cl)cc5[nH]ncc45)c3C)C2)C1` (single isomer, unassigned) [Example 228a, 1-(6-(3-(4-((6-oxa-3-azabicyclo[3.1.1]heptan-3-yl)methyl)-2,2-dimethylpiperidin-1-yl)-4-(5,6-dichloro-1H-indazol-4-yl)-5-methyl-1H-pyrazol-1-yl)-2-azaspiro[3.3]heptan-2-yl)prop-2-en-1-one], the IC50 is more than 5000 nM.

Take `C=CC(=O)N1CC2(CC(n3nc(N4CCC(CN5CC6CC(C5)O6)CC4(C)C)c(-c4c(Cl)c(Cl)cc5[nH]ncc45)c3C)C2)C1` (single isomer, unassigned) [Example 228b, 1-(6-(3-(4-((6-oxa-3-azabicyclo[3.1.1]heptan-3-yl)methyl)-2,2-dimethylpiperidin-1-yl)-4-(5,6-dichloro-1H-indazol-4-yl)-5-methyl-1H-pyrazol-1-yl)-2-azaspiro[3.3]heptan-2-yl)prop-2-en-1-one]: the IC50 worked out at 281 nM.

Consider `C=CC(=O)N1CC2(CC(n3nc(N4CCC(CN5CC6CC(C5)O6)CC4(C)C)c(-c4c(Cl)c(Cl)cc5[nH]ncc45)c3C)C2)C1` (single isomer, unassigned) [Example 229a, 1-(6-(3-(4-((6-oxa-3-azabicyclo[3.1.1]heptan-3-yl)methyl)-2,2-dimethylpiperidin-1-yl)-4-(5,6-dichloro-1H-indazol-4-yl)-5-methyl-1H-pyrazol-1-yl)-2-azaspiro[3.3]heptan-2-yl)prop-2-en-1-one], for which the IC50 was more than 5000 nM.

For `C=CC(=O)N1CC2(CC(n3nc(N4CCC(CN5CC6CC(C5)O6)CC4(C)C)c(-c4c(Cl)c(Cl)cc5[nH]ncc45)c3C)C2)C1` (single isomer, unassigned) [Example 229b, 1-(6-(3-(4-((6-oxa-3-azabicyclo[3.1.1]heptan-3-yl)methyl)-2,2-dimethylpiperidin-1-yl)-4-(5,6-dichloro-1H-indazol-4-yl)-5-methyl-1H-pyrazol-1-yl)-2-azaspiro[3.3]heptan-2-yl)prop-2-en-1-one], the IC50 stood at 11 nM.

As to `C=CC(=O)N1CC2(CC(n3nc(N4CCC(CN5C[C@@H]6OCCO[C@@H]6C5)CC4(C)C)c(-c4c(Cl)c(Cl)cc5[nH]ncc45)c3C)C2)C1` (single isomer, unassigned) [Example 231a], the 50% inhibitory concentration (IC50) is more than 5000 nM.

Regarding `C=CC(=O)N1CC2(CC(n3nc(N4CCC(CN5C[C@@H]6OCCO[C@@H]6C5)CC4(C)C)c(-c4c(Cl)c(Cl)cc5[nH]ncc45)c3C)C2)C1` (single isomer, unassigned) [Example 231b], the IC50 turned out to be 11 nM.

In the case of `C=CC(=O)N1CC2(CC(n3nc(N4CCC(CN5C[C@@H]6OCCO[C@@H]6C5)CC4(C)C)c(-c4c(Cl)c(Cl)cc5[nH]ncc45)c3C)C2)C1` (single isomer, unassigned) [Example 232a], the IC50 was more than 5000 nM.

Turning to `C=CC(=O)N1CC2(CC(n3nc(N4CCC(CN5C[C@@H]6OCCO[C@@H]6C5)CC4(C)C)c(-c4c(Cl)c(Cl)cc5[nH]ncc45)c3C)C2)C1` (single isomer, unassigned) [Example 232b], the IC50 is 137 nM.

With `C=CC(=O)N1CC2(CC(n3nc(N4CC[C@@H](CN5CCOCC5)CC4(C)C)c(-c4c(C)c(Cl)cc5[nH]ncc45)c3C)C2)C1` (single isomer, unassigned) [Example 233a], the IC50 was determined as 4000 nM.

On to `C=CC(=O)N1CC2(CC(n3nc(N4CC[C@@H](CN5CCOCC5)CC4(C)C)c(-c4c(C)c(Cl)cc5[nH]ncc45)c3C)C2)C1` (single isomer, unassigned) [Example 233b], for which the IC50 is 20 nM.

Consider `C=CC(=O)N1CC2(CC(n3nc(N4CC[C@@H](CN5CC6(CCCO6)C5)CC4(C)C)c(-c4c(Cl)c(Cl)cc5[nH]ncc45)c3C)C2)C1` (single isomer, unassigned) [Example 234a], for which the IC50 came to 1000 nM.

On to `C=CC(=O)N1CC2(CC(n3nc(N4CC[C@@H](CN5CC6(CCCO6)C5)CC4(C)C)c(-c4c(Cl)c(Cl)cc5[nH]ncc45)c3C)C2)C1` (single isomer, unassigned) [Example 234b], for which the IC50 is 9 nM.

As to `C=CC(=O)N1CC2(CC(n3nc(N4CCC(CN5CCS(=O)(=O)CC5)CC4(C)C)c(-c4c(Cl)c(Cl)cc5[nH]ncc45)c3C)C2)C1` (single isomer, unassigned) [Example 235a, 1-(6-(4-(5,6-dichloro-1H-indazol-4-yl)-3-(4-((1,1-dioxidothiomorpholino)methyl)-2,2-dimethylpiperidin-1-yl)-5-methyl-1H-pyrazol-1-yl)-2-azaspiro[3.3]heptan-2-yl)prop-2-en-1-one], the IC50 turned out to be 932 nM.

As to `C=CC(=O)N1CC2(CC(n3nc(N4CCC(CN5CCS(=O)(=O)CC5)CC4(C)C)c(-c4c(Cl)c(Cl)cc5[nH]ncc45)c3C)C2)C1` (single isomer, unassigned) [Example 235b, 1-(6-(4-(5,6-dichloro-1H-indazol-4-yl)-3-(4-((1,1-dioxidothiomorpholino)methyl)-2,2-dimethylpiperidin-1-yl)-5-methyl-1H-pyrazol-1-yl)-2-azaspiro[3.3]heptan-2-yl)prop-2-en-1-one], the IC50 turned out to be 10 nM.

For the compound `C=CC(=O)N1CC2(CC(n3nc(N4CCC(CN5CCS(=O)(=O)CC5)CC4(C)C)c(-c4c(Cl)c(Cl)cc5[nH]ncc45)c3C)C2)C1` (single isomer, unassigned) [Example 236a, 1-(6-(4-(5,6-dichloro-1H-indazol-4-yl)-3-(4-((1,1-dioxidothiomorpholino)methyl)-2,2-dimethylpiperidin-1-yl)-5-methyl-1H-pyrazol-1-yl)-2-azaspiro[3.3]heptan-2-yl)prop-2-en-1-one], the IC50 is 168 nM.

Consider `C=CC(=O)N1CC2(CC(n3nc(N4CCC(CN5CCS(=O)(=O)CC5)CC4(C)C)c(-c4c(Cl)c(Cl)cc5[nH]ncc45)c3C)C2)C1` (single isomer, unassigned) [Example 236b, 1-(6-(4-(5,6-dichloro-1H-indazol-4-yl)-3-(4-((1,1-dioxidothiomorpholino)methyl)-2,2-dimethylpiperidin-1-yl)-5-methyl-1H-pyrazol-1-yl)-2-azaspiro[3.3]heptan-2-yl)prop-2-en-1-one], for which the IC50 was found to be 2500 nM.

Turning to `C=CC(=O)N1CC2(CC(n3nc(N4CCC(O)(CN5CCOCC5)CC4(C)C)c(-c4c(Cl)c(Cl)cc5[nH]ncc45)c3C)C2)C1` (single isomer, unassigned) [Example 237a, 1-(6-(4-(5,6-dichloro-1H-indazol-4-yl)-3-(4-hydroxy-2,2-dimethyl-4-(morpholinomethyl)piperidin-1-yl)-5-methyl-1H-pyrazol-1-yl)-2-azaspiro[3.3]heptan-2-yl)prop-2-en-1-one], the IC50 is more than 5000 nM.

A word on the IC50: it is the concentration that gives 50% inhibition.
